According to PubChem BioAssay (NCI):
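Step 1: Grow cells in 96-well plates. Step 2: Expose to compound for 48 hours at 5 concentrations. Step 3: Interpolate endpoints linearly; if unreached, use highest concentration. TGI denotes the concentration required for complete inhibition of growth.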

What was measured:
Test in all cases: NCI-60 cell line screen, 48 h
LXFL 529 NSCLC = tested on: LXFL 529 NSCLC
DLD-1 colon = tested on: DLD-1 colon
A549 NSCLC = tested on: A549 NSCLC
SNB-19 CNS = tested on: SNB-19 CNS
NCI-H226 lung = tested on: NCI-H226 lung
RXF 393 renal = tested on: RXF 393 renal
KM20L2 colon = tested on: KM20L2 colon
M19-MEL melanoma = tested on: M19-MEL melanoma
HCT-116 colon = tested on: HCT-116 colon
U251 CNS = tested on: U251 CNS
UACC-257 melanoma = tested on: UACC-257 melanoma
CAKI-1 renal = tested on: CAKI-1 renal
ACHN renal = tested on: ACHN renal
SK-OV-3 ovarian = tested on: SK-OV-3 ovarian
EKVX NSCLC = tested on: EKVX NSCLC
TK-10 renal = tested on: TK-10 renal
HCT-15 colon = tested on: HCT-15 colon
DMS 114 small cell lung = tested on: DMS 114 small cell lung
KM12 colon = tested on: KM12 colon
SF-295 CNS = tested on: SF-295 CNS
HOP-18 NSCLC = tested on: HOP-18 NSCLC
A498 renal = tested on: A498 renal
SW-620 colon = tested on: SW-620 colon
SR leukemia = tested on: SR leukemia
SK-MEL-28 melanoma = tested on: SK-MEL-28 melanoma
HCC-2998 colon = tested on: HCC-2998 colon
SN12C renal = tested on: SN12C renal
COLO 205 colon = tested on: COLO 205 colon
M14 melanoma = tested on: M14 melanoma
OVCAR-3 ovarian = tested on: OVCAR-3 ovarian
MALME-3M melanoma = tested on: MALME-3M melanoma
HOP-92 NSCLC = tested on: HOP-92 NSCLC
UACC-62 melanoma = tested on: UACC-62 melanoma
HOP-62 NSCLC = tested on: HOP-62 NSCLC
SF-539 CNS = tested on: SF-539 CNS
MOLT-4 leukemia = tested on: MOLT-4 leukemia
HT29 colon = tested on: HT29 colon
OVCAR-4 ovarian = tested on: OVCAR-4 ovarian
NCI-H23 lung = tested on: NCI-H23 lung
OVCAR-5 ovarian = tested on: OVCAR-5 ovarian
SF-268 CNS = tested on: SF-268 CNS
NCI-H460 lung = tested on: NCI-H460 lung
IGROV1 ovarian = tested on: IGROV1 ovarian
SK-MEL-2 melanoma = tested on: SK-MEL-2 melanoma
SNB-75 CNS = tested on: SNB-75 CNS
LOX IMVI melanoma = tested on: LOX IMVI melanoma
SNB-78 CNS = tested on: SNB-78 CNS
SK-MEL-5 melanoma = tested on: SK-MEL-5 melanoma
786-0 renal = tested on: 786-0 renal
UO-31 renal = tested on: UO-31 renal
OVCAR-8 ovarian = tested on: OVCAR-8 ovarian
DMS 273 small cell lung = tested on: DMS 273 small cell lung
RPMI-8226 leukemia = tested on: RPMI-8226 leukemia
HL-60(TB) leukemia = tested on: HL-60(TB) leukemia
CCRF-CEM leukemia = tested on: CCRF-CEM leukemia
NCI-H522 lung = tested on: NCI-H522 lung
K-562 leukemia = tested on: K-562 leukemia

CN(C)CC1CCCCCCCCCCCCC(CN(C)C)C1=O (stereo not given)
TGI (LXFL 529 NSCLC): 28.1 µM | TGI (DLD-1 colon): 29.6 µM | TGI (A549 NSCLC): 29.6 µM | TGI (SNB-19 CNS): 31.6 µM | TGI (NCI-H226 lung): 23.9 µM | TGI (RXF 393 renal): 24 µM | TGI (KM20L2 colon): 24.9 µM | TGI (M19-MEL melanoma): 25.1 µM | TGI (HCT-116 colon): 16.8 µM | TGI (U251 CNS): 28 µM | TGI (UACC-257 melanoma): 29.9 µM | TGI (CAKI-1 renal): 26.3 µM | TGI (ACHN renal): 29.9 µM | TGI (SK-OV-3 ovarian): 32.3 µM | TGI (EKVX NSCLC): 37.3 µM | TGI (TK-10 renal): 27.9 µM | TGI (HCT-15 colon): 34.8 µM | TGI (DMS 114 small cell lung): 31.3 µM | TGI (KM12 colon): 24 µM | TGI (SF-295 CNS): 29.6 µM | TGI (HOP-18 NSCLC): 30.1 µM | TGI (A498 renal): 33 µM | TGI (SW-620 colon): 20.6 µM | TGI (SR leukemia): 14 µM | TGI (SK-MEL-28 melanoma): 26.6 µM | TGI (HCC-2998 colon): 22.2 µM | TGI (SN12C renal): 29.4 µM | TGI (COLO 205 colon): 27.6 µM | TGI (M14 melanoma): 25.9 µM | TGI (OVCAR-3 ovarian): 30.7 µM | TGI (MALME-3M melanoma): 29.4 µM | TGI (HOP-92 NSCLC): 26.3 µM | TGI (UACC-62 melanoma): 26.1 µM | TGI (HOP-62 NSCLC): 30.3 µM | TGI (SF-539 CNS): 28.7 µM | TGI (MOLT-4 leukemia): 20.8 µM | TGI (HT29 colon): 18.5 µM | TGI (OVCAR-4 ovarian): 29.4 µM | TGI (NCI-H23 lung): 32 µM | TGI (OVCAR-5 ovarian): 30.6 µM | TGI (SF-268 CNS): 26 µM | TGI (NCI-H460 lung): 27.6 µM | TGI (IGROV1 ovarian): 33.1 µM | TGI (SK-MEL-2 melanoma): 26 µM | TGI (SNB-75 CNS): 24.6 µM | TGI (LOX IMVI melanoma): 21.3 µM | TGI (SNB-78 CNS): 28.7 µM | TGI (SK-MEL-5 melanoma): 27.8 µM | TGI (786-0 renal): 21.7 µM | TGI (UO-31 renal): 26.8 µM | TGI (OVCAR-8 ovarian): 22.4 µM | TGI (DMS 273 small cell lung): 22.9 µM

O=C1NC(=O)C2C1C1C=C3c4ccccc4N(c4ccccc4)C32[C@H]2C(=O)NC(=O)[C@@H]12 (stereo not given in full)
TGI (RPMI-8226 leukemia): > 100 µM | TGI (LXFL 529 NSCLC): > 100 µM | TGI (DLD-1 colon): > 100 µM | TGI (A549 NSCLC): > 100 µM | TGI (SNB-19 CNS): > 100 µM | TGI (NCI-H226 lung): > 100 µM | TGI (KM20L2 colon): > 100 µM | TGI (M19-MEL melanoma): > 100 µM | TGI (HCT-116 colon): > 100 µM | TGI (UACC-257 melanoma): > 100 µM | TGI (CAKI-1 renal): > 100 µM | TGI (ACHN renal): > 100 µM | TGI (SK-OV-3 ovarian): > 100 µM | TGI (EKVX NSCLC): > 100 µM | TGI (TK-10 renal): > 100 µM | TGI (HCT-15 colon): > 100 µM | TGI (DMS 114 small cell lung): > 100 µM | TGI (KM12 colon): > 100 µM | TGI (SF-295 CNS): > 100 µM | TGI (HOP-18 NSCLC): > 100 µM | TGI (A498 renal): > 100 µM | TGI (SW-620 colon): > 100 µM | TGI (SK-MEL-28 melanoma): > 100 µM | TGI (HCC-2998 colon): > 100 µM | TGI (SN12C renal): > 100 µM | TGI (COLO 205 colon): > 100 µM | TGI (HL-60(TB) leukemia): > 100 µM | TGI (M14 melanoma): > 100 µM | TGI (OVCAR-3 ovarian): > 100 µM | TGI (CCRF-CEM leukemia): > 100 µM | TGI (MALME-3M melanoma): > 100 µM | TGI (NCI-H522 lung): > 100 µM | TGI (HOP-92 NSCLC): > 100 µM | TGI (K-562 leukemia): > 100 µM | TGI (UACC-62 melanoma): > 100 µM | TGI (HOP-62 NSCLC): > 100 µM | TGI (SF-539 CNS): > 100 µM | TGI (MOLT-4 leukemia): > 100 µM | TGI (HT29 colon): > 100 µM | TGI (OVCAR-4 ovarian): > 100 µM | TGI (OVCAR-5 ovarian): > 100 µM | TGI (SF-268 CNS): > 100 µM | TGI (NCI-H460 lung): > 100 µM | TGI (IGROV1 ovarian): > 100 µM | TGI (SK-MEL-2 melanoma): > 100 µM | TGI (SNB-75 CNS): > 100 µM | TGI (LOX IMVI melanoma): > 100 µM | TGI (SNB-78 CNS): > 100 µM | TGI (SK-MEL-5 melanoma): > 100 µM | TGI (786-0 renal): > 100 µM | TGI (UO-31 renal): > 100 µM | TGI (OVCAR-8 ovarian): > 100 µM | TGI (DMS 273 small cell lung): > 100 µM
